Experimental data published in patent publication US20200113902A1, “COMPOSITIONS AND METHODS FOR TREATING CANCERS WITH COVALENT INHIBITORS OF CYCLIN-DEPENDENT KINASE 7 (CDK7)” (Syros Pharmaceuticals, Inc., priority 2017, published 2020).

What was measured:
[1] = test system: HR^+ breast cancer cell lines; conditions: several HR^+ breast cancer cell lines; cited from earlier work
[2] = test system: gene expression in HCC70 cells; assay: Gene expression profiling via RNA-seq (DESeq2, linear model), HCC70; format: cell-based; conditions: four hours, JQ1 125 nM, Compound 1 25 nM
Procedure: (§1) In addition, we compared the ability of JQ1 alone, Compound 1 alone, and a combination of JQ1 and Compound 1 to modify expression of various genes in two breast cancer cell lines. Two triple-negative breast cancer cell lines (HCC70 and MDA-MB468) were tested. The cell lines were treated with JQ1, Compound 1, the JQ1/Compound 1 combination, or DMSO for four hours, after which gene expression profiling via RNA-seq was performed. JQ1 was administered to the cells at a 125 nM final concentration in both single agent and combination experiments. Compound 1 was administered to the cells at a 25 nM final concentration in both single agent and combination experiments. Each experiment was performed in triplicate. One replicate of MDA-MB-468 treated with single-agent JQ1 was excluded from further analysis due to quality.
(§2) We employed DESeq2 (Love et al., Genome Biology, 15(12):550, 2014) to identify changes in gene expression due to the JQ1, Compound 1, and JQ1-Compound 1 combination treatment compared to the control DMSO condition based on the RNA-seq data. Genes resulting in a p-value below 0.01 and an absolute logFoldChange above 0.5 were considered to be differentially expressed. […] The same is true for 1459 of 2414 genes in MDA-MB468.
(§3) To identify the genes whose expression is impacted synergistically by the drug combination, we modeled the effect of each drug treatment on expression using a linear model. The expression of each gene after the combination treatment can be thought of as the combined impact of Compound 1, JQ1, and any synergistic interaction between the drug treatments on baseline gene expression. A linear model used to describe this relationship could therefore be represented as:
(§4) Gene Expression after combination treatment=Baseline Expression+Compound 1 effect+JQ1 effect+Combination effect (Synergistic Impact)
(§5) By fitting the expression data for each gene using this model, we were able to evaluate the effect of each treatment, and identify cases where a synergistic interaction between Compound 1 and JQ1 impacts final gene expression. After fitting the linear model to each gene, the weight and p-value of each term can be evaluated. The combination term's weight signifies the mean change resulting from a synergetic impact on expression, with a negative weight indicating synergistic downregulation. Its associated p-value represents the probability that the combination term is not relevant to final gene expression. Using this approach, we identified 1806 genes in HCC70 and 2205 genes in MDA-MB468 whose expression change in the combination treatment was synergistic and whose associated p-value was less than a threshold cutoff of 0.01. The expression of these synergistic genes could not be explained by an additive effect of Compound 1 and JQ1 alone.

[3] = test system: gene expression in MDA-MB468 cells; assay: Gene expression profiling via RNA-seq (DESeq2, linear model), MDA-MB468; format: cell-based; conditions: four hours, JQ1 125 nM, Compound 1 25 nM
Procedure: as §1, §2, §3, §4, §5

Structure (SMILES): CN(C)C/C=C/C(=O)Nc1ccc(C(=O)Nc2cccc(Nc3ncc(Cl)c(-c4c[nH]c5ccccc45)n3)c2)cc1 [THZ-1]
- In vitro synergy with fulvestrant [1]: synergy

Structure (SMILES): Cc1sc2c(c1C)C(c1ccc(Cl)cc1)=N[C@@H](CC(=O)OC(C)(C)C)c1nnc(C)n1-2 [JQ1, reference compound]
- Average Expression (TPM) GATA3 ([2]; DMSO 32.685): 29.574 TPM
- Average Expression (TPM) FOXC1 ([2]; DMSO 40.481): 40.529 TPM
- Average Expression (TPM) TGIF1 ([2]; DMSO 62.523): 52.509 TPM
- Average Expression (TPM) FOXC1 ([3]; DMSO 33.731): 37.112 TPM
- Average Expression (TPM) GATA3 ([3]; DMSO 34.244): 32.491 TPM
- Average Expression (TPM) TGIF1 ([3]; DMSO 145.88): 151.60 TPM
